For orientation: Ki means a dissociation constant, usually derived from enzyme kinetics or from competition with a known ligand. Low values mean a stronger hold on the target, high ones a looser hold on the target.

Assay [1] concerns the target T1, Adenosine receptor A1 (Cavia porcellus, UniProt P47745).
T1 sequence (P47745 whole entry): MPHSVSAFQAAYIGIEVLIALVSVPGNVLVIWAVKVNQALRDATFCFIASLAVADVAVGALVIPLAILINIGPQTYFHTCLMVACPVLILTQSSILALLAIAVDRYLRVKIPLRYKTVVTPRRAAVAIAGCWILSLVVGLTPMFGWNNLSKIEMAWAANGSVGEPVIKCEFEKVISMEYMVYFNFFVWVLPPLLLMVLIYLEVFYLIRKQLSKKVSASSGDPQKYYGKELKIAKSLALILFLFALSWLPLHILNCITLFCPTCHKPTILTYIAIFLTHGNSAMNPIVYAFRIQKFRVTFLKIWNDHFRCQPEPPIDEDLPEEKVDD
Briefly: Binding affinity against adenosine A1 receptor using [3H]CPX in guinea pig DDT membrane; 117+/-46.

Assay [2] has as its target T1, Adenosine receptor A1. Briefly: Binding affinity against adenosine A1 receptor using [3H]CPX in guinea pig DDT membrane; 7292+/-3241.
For assay [3], the target named is T1, Adenosine receptor A1. Briefly: Binding affinity against adenosine A1 receptor using [3H]CPX in guinea pig DDT membrane; 1945+/-1316.
Assay [4] has as its target T1, Adenosine receptor A1. Description: Binding affinity against adenosine A1 receptor using [3H]CPX in guinea pig DDT membrane; 604+/-241.
In assay [5] the target is T1, Adenosine receptor A1. Description: Binding affinity against adenosine A1 receptor using [3H]CPX in guinea pig DDT membrane.
For assay [6], the target named is T1, Adenosine receptor A1. Description: Binding affinity against adenosine A1 receptor using [3H]CPX in guinea pig DDT membrane; 5497+/-180.
In assay [7] the target is T1, Adenosine receptor A1. Briefly: Binding affinity against adenosine A1 receptor using [3H]CPX in guinea pig DDT membrane; 343+/-137.
The target in assay [8] is T1, Adenosine receptor A1. Briefly: Binding affinity against adenosine A1 receptor using [3H]CPX in guinea pig DDT membrane; 1666+/-556.
For assay [9], the target named is T1, Adenosine receptor A1. Description: Binding affinity against adenosine A1 receptor using [3H]CPX in guinea pig DDT membrane; 503+/-262.
For assay [10], the target named is T1, Adenosine receptor A1. Briefly: Binding affinity against adenosine A1 receptor using [3H]CPX in guinea pig DDT membrane; 1773+/-209.
Assay [11] addresses T1, Adenosine receptor A1. Briefly: Binding affinity against adenosine A1 receptor using [3H]CPX in guinea pig DDT membrane; 338+/-98.
Assay [12] addresses T1, Adenosine receptor A1. Description: Binding affinity against adenosine A1 receptor using [3H]CPX in guinea pig DDT membrane; 614+/-78.
Assay [13] concerns the target T1, Adenosine receptor A1. Briefly: Binding affinity against adenosine A1 receptor using [3H]CPX in guinea pig DDT membrane; 1571+/-245.
In assay [14] the target is T1, Adenosine receptor A1. Description: Binding affinity against adenosine A1 receptor using [3H]CPX in guinea pig DDT membrane; 400+/-38.
For assay [15], the target named is T1, Adenosine receptor A1. Description: Binding affinity against adenosine A1 receptor using [3H]CPX in guinea pig DDT membrane; 5855+/-1208.
For assay [16], the target named is T1, Adenosine receptor A1. Description: Binding affinity against adenosine A1 receptor using [3H]CPX in guinea pig DDT membrane; 166+/-75.
The target in assay [17] is T1, Adenosine receptor A1. Briefly: Binding affinity against adenosine A1 receptor using [3H]-CPX in guinea pig DDT membrane; 4191+/-922.
For assay [18], the target named is T1, Adenosine receptor A1. Description: Binding affinity against adenosine A1 receptor using [3H]CPX in guinea pig DDT membrane; 287+/-125.
Assay [19] addresses T1, Adenosine receptor A1. Briefly: Binding affinity against adenosine A1 receptor using [3H]CPX in guinea pig DDT membrane; 913+/-517.
Assay [20] deals with T1, Adenosine receptor A1. Description: Binding affinity against adenosine A1 receptor using [3H]CPX in guinea pig DDT membrane; 6250+/-1767.
Assay [21] addresses T1, Adenosine receptor A1. Description: Binding affinity against adenosine A1 receptor using [3H]CPX in guinea pig DDT membrane; 894+/-659.
Assay [22] concerns the target T1, Adenosine receptor A1. Description: Binding affinity against adenosine A1 receptor using [3H]CPX in guinea pig DDT membrane; 1143+/-426.
The target of assay [23] is T1, Adenosine receptor A1. Briefly: Binding affinity against adenosine A1 receptor using [3H]CPX in guinea pig DDT membrane; 354+/-113.
Assay [24] deals with T1, Adenosine receptor A1. Description: Binding affinity against adenosine A1 receptor using [3H]CPX in guinea pig DDT membrane; 473+/-329.
For assay [25], the target named is T1, Adenosine receptor A1. Briefly: Binding affinity against adenosine A1 receptor using [3H]CPX in guinea pig DDT membrane; 158+/-21.
The target of assay [26] is T1, Adenosine receptor A1. Briefly: Binding affinity against adenosine A1 receptor using [3H]CPX in guinea pig DDT membrane; 506+/-111.

At Adenosine receptor A1 [1], `O[C@@H]1[C@@H](COc2ccccc2F)OC(n2cnc3c(NC4CCOC4)ncnc32)[C@@H]1O` (stereo partly specified) gave a Ki of 117 nM.

Compound `Cc1cccc(Cl)c1SC[C@H]1OC(n2cnc3c(NC4CCOC4)ncnc32)[C@H](O)[C@@H]1O` (stereo partly specified) yielded a Ki on Adenosine receptor A1 [2] of 7290 nM.

On Adenosine receptor A1 [3], `O[C@@H]1[C@@H](CSc2nc3ccc(Cl)cc3o2)OC(n2cnc3c(NC4CCOC4)ncnc32)[C@@H]1O` (stereo partly specified) displayed a Ki of 1940 nM.

Turning to `O[C@@H]1[C@@H](COc2cccc(F)c2)OC(n2cnc3c(NC4CCOC4)ncnc32)[C@@H]1O` (stereo partly specified), affinity on Adenosine receptor A1 [4] was put at a Ki of 604 nM.

Regarding `O[C@@H]1[C@H](O)[C@@H](CSc2ccc(F)cc2F)O[C@H]1n1cnc2c(NC3CCOC3)ncnc21` (stereo partly specified), the figures for the Ki on Adenosine receptor A1 [5] and on Adenosine receptor A1 [6] were 494 nM and 5500 nM, respectively.

`O[C@@H]1[C@@H](COc2ccc(F)cc2)OC(n2cnc3c(NC4CCOC4)ncnc32)[C@@H]1O` (stereo partly specified): the affinity at Adenosine receptor A1 [7], expressed as Ki, was 343 nM.

`COc1ccc2nc(SC[C@H]3OC(n4cnc5c(NC6CCCC6)ncnc54)[C@H](O)[C@@H]3O)sc2c1` (stereo partly specified) registered a Ki on Adenosine receptor A1 [8] of 1670 nM.

The compound `Cc1ccccc1OC[C@H]1OC(n2cnc3c(NC4CCOC4)ncnc32)[C@H](O)[C@@H]1O` (stereo partly specified) had a Ki at Adenosine receptor A1 [9] of 503 nM.

Compound `Cc1cc(COC[C@H]2OC(n3cnc4c(NC5CCOC5)ncnc43)[C@H](O)[C@@H]2O)no1` (stereo partly specified) showed a Ki on Adenosine receptor A1 [5] of 192 nM.

`O[C@@H]1[C@@H](CSc2nc3ccccc3s2)OC(n2cnc3c(NC4CCCC4)ncnc32)[C@@H]1O` (stereo partly specified) showed a Ki on Adenosine receptor A1 [10] of 1770 nM.

Regarding `Cc1csc(SC[C@H]2OC(n3cnc4c(NC5CCOC5)ncnc43)[C@H](O)[C@@H]2O)n1` (stereo partly specified), the Ki at Adenosine receptor A1 [5] is above 5000 nM.

The compound `O[C@@H]1[C@@H](CSc2ccccc2Cl)OC(n2cnc3c(NC4CCOC4)ncnc32)[C@@H]1O` (stereo partly specified) displayed a Ki on Adenosine receptor A1 [11] of 338 nM.

At Adenosine receptor A1 [12], `O[C@@H]1[C@@H](CSc2c(Cl)cccc2Cl)OC(n2cnc3c(NC4CCOC4)ncnc32)[C@@H]1O` (stereo partly specified) gave a Ki of 614 nM.

At Adenosine receptor A1 [13], `O[C@@H]1[C@@H](CSc2cccc(F)c2)OC(n2cnc3c(NC4CCOC4)ncnc32)[C@@H]1O` (stereo partly specified) returned a Ki of 1570 nM.

At Adenosine receptor A1 [5], `O[C@@H]1[C@@H](COCc2ccccc2)OC(n2cnc3c(NC4CCOC4)ncnc32)[C@@H]1O` (stereo partly specified) gave a Ki of 165 nM.

`O[C@@H]1[C@@H](COc2ccccc2F)OC(n2cnc3c(NC4CCCC4)ncnc32)[C@@H]1O` (stereo partly specified) came in with a Ki at Adenosine receptor A1 [5] of 4390 nM.

Regarding `O[C@@H]1[C@@H](CSc2nc3ccccc3s2)OC(n2cnc3c(NC4CCOC4)ncnc32)[C@@H]1O` (stereo partly specified), the Ki at Adenosine receptor A1 [14] amounted to 400 nM.

`Cc1cccc(C)c1SC[C@H]1OC(n2cnc3c(NC4CCOC4)ncnc32)[C@H](O)[C@@H]1O` (stereo partly specified): the Ki on Adenosine receptor A1 [15] was 5850 nM.

Regarding `O[C@@H]1[C@@H](CSc2nccs2)OC(n2cnc3c(NC4CCCC4)ncnc32)[C@@H]1O` (stereo partly specified), the Ki at Adenosine receptor A1 [16] was found to be 166 nM.

`Cn1ccnc1SC[C@H]1OC(n2cnc3c(NC4CCOC4)ncnc32)[C@H](O)[C@@H]1O` (stereo partly specified) came in with a Ki at Adenosine receptor A1 [17] of 4190 nM.

Turning to `O[C@@H]1[C@@H](CSc2ccccc2F)OC(n2cnc3c(NC4CCCC4)ncnc32)[C@@H]1O` (stereo partly specified), the affinity on Adenosine receptor A1 [18] corresponds to a Ki of 287 nM.

With `O[C@@H]1[C@@H](CSc2ncccn2)OC(n2cnc3c(NC4CCOC4)ncnc32)[C@@H]1O` (stereo partly specified), at Adenosine receptor A1 [19], the Ki is 913 nM.

On to `O[C@@H]1[C@@H](CSc2ccccc2C(F)(F)F)OC(n2cnc3c(NC4CCOC4)ncnc32)[C@@H]1O` (stereo partly specified), for which the affinity on Adenosine receptor A1 [20] corresponds to a Ki of 6250 nM.

As for `O[C@@H]1[C@@H](CSc2ccccn2)OC(n2cnc3c(NC4CCOC4)ncnc32)[C@@H]1O` (stereo partly specified), the Ki at Adenosine receptor A1 [21] was 894 nM.

On to `Cc1ccccc1SC[C@H]1OC(n2cnc3c(NC4CCOC4)ncnc32)[C@H](O)[C@@H]1O` (stereo partly specified), for which the Ki at Adenosine receptor A1 [22] turned out to be 1140 nM.

On to `COc1ccc2sc(SC[C@H]3OC(n4cnc5c(NC6CCCC6)ncnc54)[C@H](O)[C@@H]3O)nc2c1` (stereo partly specified), for which, at Adenosine receptor A1 [23], the Ki turned out to be 354 nM.

`Cn1ccnc1SC[C@H]1OC(n2cnc3c(NC4CCCC4)ncnc32)[C@H](O)[C@@H]1O` (stereo partly specified) yielded a Ki on Adenosine receptor A1 [5] of 1340 nM.

Consider `O[C@@H]1[C@@H](COc2ccccc2Cl)OC(n2cnc3c(NC4CCOC4)ncnc32)[C@@H]1O` (stereo partly specified), for which, at Adenosine receptor A1 [24], the Ki is 473 nM.

The compound `O[C@@H]1[C@@H](CSc2nccs2)OC(n2cnc3c(NC4CCOC4)ncnc32)[C@@H]1O` (stereo partly specified) gave a Ki at Adenosine receptor A1 [25] of 158 nM.

For `O[C@@H]1[C@H](O)[C@@H](CSc2ccccc2F)O[C@H]1n1cnc2c(NC3CCOC3)ncnc21` (stereo partly drawn) [N6-Tetrahydrofuranyl-9H-[5-deoxy-5-(2-fluorophenylthio)-beta-D-ribofuranosyl]adenine], the affinity on Adenosine receptor A1 [26], expressed as Ki, was 506 nM.

The values above are taken from BindingDB's records for doi:10.1016/j.bmcl.2004.04.096 (Cv Therapeutics, 2004).
